Values of other authors in patent publication US10918652B2, “Compositions for the treatment of dermatological diseases and disorders” (CLARIDEI LABORATORIES, INC., priority 2014, dated 2021).

Conditions: cited from Ramachandran et al. 2006

In the case of `O=C(O)[C@H](O)[C@@H](O)[C@H](O)[C@H](O)CO` [Gluconic acid], the pKa is listed as 3.7.
